Question: For [O-][n+]1ccnc(-c2ccc(Br)cc2)c1-c1ccc(Br)cc1, which logP is on record?
Answer: 3.41

Question: For Cc1ncc(C)[n+]([O-])c1Cl, which logP is on record?
Answer: 0.19

Question: For COc1ccc(-c2ncc(Cl)nc2-c2ccc(OC)cc2)cc1, which logP is on record?
Answer: 4.3

Question: Which logP does the source give for COc1ccc(-c2cnccn2)cc1 here?
Answer: 2.24

Question: For Clc1cnc(-c2ccccc2)c(-c2ccccc2)n1, which logP is on record?
Answer: 4.05

Question: With Cc1cnc(-c2ccc(C#N)cc2)c(-c2ccc(C#N)cc2)n1 as the compound, how does the logP read?
Answer: 2.52

Question: For Cc1cnc(-c2ccccc2)c(-c2ccccc2)n1, which logP is on record?
Answer: 3.52

Question: Which logP does the source give for COc1ccc(-c2ncc(OC)nc2-c2ccc(OC)cc2)cc1 here?
Answer: 4.47

Question: Which logP does the source give for Cc1nc(Cl)c(C)[n+]([O-])c1Cl here?
Answer: 1.08

Question: Which logP does the source give for COc1cnc(-c2ccccc2)c(-c2ccccc2)n1 here?
Answer: 4.21

Question: For CCc1cnc(-c2ccc(OC)cc2)c(-c2ccc(OC)cc2)n1, which logP is on record?
Answer: 4.22

Question: Which logP does the source give for COc1ccc(-c2ncc(C)nc2-c2ccc(OC)cc2)cc1 here?
Answer: 3.66

Question: With COc1ccc(-c2ncc(C#N)nc2-c2ccc(OC)cc2)cc1 as the compound, how does the logP read?
Answer: 3.7

Question: With CCOc1cnc(-c2ccccc2)c(-c2ccccc2)n1 as the compound, how does the logP read?
Answer: 4.73

Question: For COC(=O)c1cnc(-c2ccc(OC)cc2)c(-c2ccc(OC)cc2)n1, which logP is on record?
Answer: 3.41

Question: For Cc1nc(Cl)c(C)nc1Cl, which logP is on record?
Answer: 2.4

Question: Which logP does the source give for CCc1nc(CC)c(-c2ccccc2)nc1-c1ccccc1 here?
Answer: 4.83

Question: With CCOc1cnc(-c2ccc(OC)cc2)c(-c2ccc(OC)cc2)n1 as the compound, how does the logP read?
Answer: 5

Question: With COc1ccc(-c2nccnc2-c2ccc(OC)cc2)cc1 as the compound, how does the logP read?
Answer: 3.42

Question: Which logP does the source give for Cc1cnc(-c2ccc(F)cc2)c(-c2ccc(F)cc2)n1 here?
Answer: 3.75

Question: Which logP does the source give for Cc1c[n+]([O-])c(C)c(Cl)n1 here?
Answer: 0.44

Question: Which logP does the source give for Cc1ccc(-c2nccnc2-c2ccc(C)cc2)cc1 here?
Answer: 4.1

Question: With CC(C)c1cnc(-c2ccccc2)c(-c2ccccc2)n1 as the compound, how does the logP read?
Answer: 4.71

Question: With COc1ccc(-c2nc(C)c(C)nc2-c2ccc(OC)cc2)cc1 as the compound, how does the logP read?
Answer: 4.1

Question: With COc1ccccc1Cc1cnc(-c2ccccc2)c(-c2ccccc2)n1 as the compound, how does the logP read?
Answer: 5.18

Question: For COc1cccc(Cc2cnc(-c3ccccc3)c(-c3ccccc3)n2)c1, which logP is on record?
Answer: 5.2

Question: Which logP does the source give for CCc1ncc(-c2ccccc2)nc1-c1ccccc1 here?
Answer: 4.66

Question: For [O-][n+]1cc(Cl)nc(-c2ccc(Cl)cc2)c1-c1ccc(Cl)cc1, which logP is on record?
Answer: 3.66

Question: Which logP does the source give for c1ccc(-c2nccnc2-c2ccccc2)cc1 here?
Answer: 3.19

Question: Which logP does the source give for Cc1ncc(-c2ccccc2)nc1-c1ccccc1 here?
Answer: 4.29

Question: Which logP does the source give for c1ccc(-c2cnccn2)cc1 here?
Answer: 2.07

Question: For Cc1nc(-c2ccccc2)cnc1-c1ccccc1, which logP is on record?
Answer: 4.28

Source: the OPERA property sets (Mansouri et al. 2018)
